From paper PMC7115513 (European Journal of Medicinal Chemistry, 2012)
pIC50: −log10 of the molar value. Like-named read-outs stand apart in the source and are kept apart here. Marks after values point to notes of the source that are not given here.

Columns and labels:
[1] = system: Madin Darby canine kidney (MDCK) cells
[2] = system: P. falciparum CQ^R (K1); experiment: microbe, parasite or virus in culture; format: cell-based, Plasmodium falciparum
[3] = pH 5.6; cited from earlier work
[4] = pH 5.8; cited from earlier work
[5] = molecular target: GC rich CT DNA; format: binding, calf
[6] = format: binding; conditions: heme 2.4 μM, DMSO:H2O/4:6, v/v; increasing compound concentration
[7] = system: P. falciparum CQ^S (3D7); format: cell-based, Plasmodium falciparum; conditions: read-out: IC50 CQ^S (3D7); CQ sensitive strain; primary screening

| Compound | Cytotoxicity MIC ([1]; dog) | also measured |
| --- | --- | --- |
| CCOC(=O)c1c(C)nc(NCCCCNc2ccnc3cc(Cl)ccc23)nc1-c1ccccc1 [Compound 10c, 5-Ethoxycarbonyl-6-methyl-4-phenyl-2-[(7-chloroquinolin-4-ylamino)butylamino]pyrimidine] | 0.8 µM | – |
| Oseltamivir carboxylate [reference compound] | – | CC50 [1]: > 100000 nM; Cytotoxicity MIC [1]: h 50% cytotoxic concentration, as determined by measuring the cell viability with the colorimetric formazan- based MTS assay (reference drugs used: Oseltamivir carboxylate CC50/MIC >100, Ribavirin CC50/MIC >100, Amantadine CC50/MIC >200 and Rimantadine CC50/MIC >200). μM |
| NC(=O)c1ncn([C@@H]2O[C@H](CO)[C@@H](O)[C@H]2O)n1 [Ribavirin, reference compound] | h 50% cytotoxic concentration, as determined by measuring the cell viability with the colorimetric formazan- based MTS assay (reference drugs used: Oseltamivir carboxylate CC50/MIC >100, Ribavirin CC50/MIC >100, Amantadine CC50/MIC >200 and Rimantadine CC50/MIC >200). μM | – |
| Cc1nc(NCCCNc2ccnc3cc(Cl)ccc23)nc(-c2cccc([N+](=O)[O-])c2)c1C(=O)OC(C)C [Compound 10n, 5-Isopropyloxycarbonyl-6-methyl-4-(3-nitrophenyl)-2-[(7-chloroquinolin-4-ylamino)propylamino]pyrimidine] | 0.8 µM | – |
| CCOC(=O)c1c(C)nc(NCCNc2ccnc3cc(Cl)ccc23)nc1-c1ccccc1 [Compound 10a, 5-Ethoxycarbonyl-6-methyl-4-phenyl-2-[(7-chloroquinolin-4-ylamino)ethylamino] pyrimidine] | 0.8 µM | – |
| CCN(CC)CCCC(C)Nc1ccnc2cc(Cl)ccc12 (stereo not drawn) [Compound 2, chloroquine, reference compound] | – | pIC50 ([2]; Plasmodium falciparum, K1, read-out: IC50 CQ^R (K1)): 6.70; Monomeric heme log K [3]: 4.82; μ-oxo heme log K [4]: 5.6 ^c |
| NC12CC3CC(CC(C3)C1)C2 [Amantadine, reference compound] | h 50% cytotoxic concentration, as determined by measuring the cell viability with the colorimetric formazan- based MTS assay (reference drugs used: Oseltamivir carboxylate CC50/MIC >100, Ribavirin CC50/MIC >100, Amantadine CC50/MIC >200 and Rimantadine CC50/MIC >200). μM | – |
| Cc1nc(NCCCCNc2ccnc3cc(Cl)ccc23)nc(-c2ccccc2[N+](=O)[O-])c1C(=O)OC(C)C [Compound 10r, 5-Isopropyloxycarbonyl-6-methyl-4-(2-nitrophenyl)-2-[(7-chloroquinolin-4-ylamino)butylamino] pyrimidine] | 4.0 µM | binding constant (log K) from fluorescence data, CT DNA [5]: 4.67 |
| Cc1nc(NCCNc2ccnc3cc(Cl)ccc23)nc(-c2ccccc2[N+](=O)[O-])c1C(=O)OC(C)C [Compound 10p, 5-Isopropyloxycarbonyl-6-methyl-4-(2-nitrophenyl)-2-[(7-chloroquinolin-4-ylamino)ethylamino] pyrimidine] | ≥0.8 µM | – |
| CCOC(=O)c1c(C)nc(Nc2ccccc2Nc2ccnc3cc(Cl)ccc23)nc1-c1ccccc1 [Compound 10h, 5-Ethoxycarbonyl-6-methyl-4-phenyl-2-[2-(7-chloroquinolin-4-ylamino)phenylamino] pyrimidine] | – | change in heme absorbance at 402 nm on titration [6]: no change in the absorbance at 402 nm |
| 5-Ethoxycarbonyl-6-methyl-4-phenyl-2-[5-(7-chloroquinolin-4-ylamino)-2-methylpentylamino] pyrimidine [Compound 10k] | – | pIC50 [7]: 6.54; pIC50 ([2]; read-out: IC50 CQ^R (K1)): 6.07 |
| CCOC(=O)c1c(C)nc(Nc2ccc(Nc3ccnc4cc(Cl)ccc34)cc2)nc1-c1ccccc1 [Compound 10i, 5-Ethoxycarbonyl-6-methyl-4-phenyl-2-[4-(7-chloroquinolin-4-ylamino)phenylamino] pyrimidine] | – | change in heme absorbance at 402 nm on titration [6]: marked gradual decrease in absorbance at 402 nm |
| CCOC(=O)c1c(C)nc(NCCCNc2ccnc3cc(Cl)ccc23)nc1-c1ccccc1 [Compound 10b, 5-Ethoxycarbonyl-6-methyl-4-phenyl-2-[(7-chloroquinolin-4-ylamino)propylamino]pyrimidine] | 0.8 µM | – |
| CCOC(=O)c1c(C)nc(NCCCNc2ccnc3cc(Cl)ccc23)nc1C [Compound 10l, 5-Ethoxycarbonyl-6-methyl-4-methyl-2-[(7-chloroquinolin-4-ylamino)propylamino]pyrimidine] | 20 µM | – |
| CCOC(=O)c1c(C)nc(NCCCCNc2ccnc3cc(Cl)ccc23)nc1C [Compound 10m, 5-Ethoxycarbonyl-6-methyl-4-methyl-2-[(7-chloroquinolin-4-ylamino)butylamino]pyrimidine] | 4 µM | – |
| CC(N)C12CC3CC(CC(C3)C1)C2 (stereo not drawn) [Rimantadine, reference compound] | h 50% cytotoxic concentration, as determined by measuring the cell viability with the colorimetric formazan- based MTS assay (reference drugs used: Oseltamivir carboxylate CC50/MIC >100, Ribavirin CC50/MIC >100, Amantadine CC50/MIC >200 and Rimantadine CC50/MIC >200). μM | – |
